In patent US20040213766A1, “Compositions and methods for treating transplants” (priority 2002, published 2004):

How the values were obtained:
[1] = system: HUVEC; assay: 3H-ATP tracer incorporation into HUVEC and repeated washes; format: cell-based, human; conditions: cells washed repeatedly
Protocol: To confirm the carboxyfluorescein studies, ^3H-ATP was used as a tracer instead of the fluor. Vesicles were incubated with HUVEC for either 5, 10, 15, 30, 45, 60, 90, 120, or 240 minutes.

[2] = system: severed limbs; assay: Limb replantation after perfusion of amputated hind legs; format: in vivo; conditions: rat hind leg replantation, perfusion every 3 hours
Protocol: Hind legs were amputated from rats, and the major feed arteries for the severed limbs were cannulated for infusion of A-FUV, loaded in a 1 mM ATP solution. The limbs were perfused with A-FUV or control solutions (see Table 1) every 3 hours, or as deemed necessary by the change in tissue ATP levels. The arterial pressure of the limbs were monitored during infusion to decrease the chance of flow-induced injury, and to monitor the overall preservation of the severed limbs (higher perfusion pressures may indicate limb morbidity). Following the preservation period, the limbs were flushed with Ringers to remove traces of A-FUV. The limbs were then surgically reattached, and external indices of limb function after anastomoses were evaluated (limb color, evidence of microthrombi, coagulation, limb temperature). The animals prior to and following replantation received heparin to prevent hemostasis. In addition, animals were placed on antibiotic therapy to reduce infection. Control limbs were perfused with vehicle only, vehicle and ATP only, or vehicle and FUVs only.

`Nc1ncnc2c1ncn2[C@@H]1O[C@H](COP(=O)(O)OP(=O)(O)OP(=O)(O)O)[C@@H](O)[C@H]1O` [free ^3H-ATP, ^3H-ATP] was tested, and the “radioactivity of the cells after repeated washes” value [1] was “complete loss of radioactivity”.
With `Nc1ncnc2c1ncn2[C@@H]1O[C@H](COP(=O)(O)OP(=O)(O)OP(=O)(O)O)[C@@H](O)[C@H]1O` [ATP] the Limb outcome [2] was “necrosis”.
